# Laboratory results reported in EPA's ToxValDB 9.5 (doi:10.2903/j.efsa.2010.1876).
# “And” between values parts separate entries of the source, which are not always exact repeats. Identical values can stand only once.
# Experiments:
# [1] = system: Lepomis macrochirus; settings: acute; duration: 96 hours; mortality
# [2] = system: Anas platyrhynchos; settings: reproductive
# [3] = system: Colinus virginianus; settings: acute; oral; diet; mortality
# [4] = system: Oncorhynchus mykiss; settings: chronic/long-term; duration: 28 days; growth
# [5] = system: Tagia sp.
# [6] = system: Coturnix japonica; settings: acute; oral; mortality
# [7] = system: Rattus norvegicus
# [8] = system: Apis mellifera; settings: acute; duration: 48 hours; oral; unspecified; mortality
# [9] = system: Daphnia magna; settings: chronic/long-term; duration: 22 days; reproduction
# [10] = system: Mus musculus; settings: acute; oral; mortality
# [11] = system: Typhlodromus pyri; assay: LR50; higher = less toxic; settings: not reported; mortality
SMILES,LC50 [1],NOEC [2],LC50 [3],NOEC [4],"LC50 ([5]; acute, mortality)","NOEC ([5]; chronic/long-term, duration: 56 days)",LD50 [6],"NOAEL ([7]; chronic, duration: 2 years, clinical chemistry)","NOAEL ([7]; developmental, development)",LD50 [8],NOEC [9],LD50 [10],LR50 [11],NOAEL ([7]; reproduction developmental)
CC(C)(C)[C@H](O)[C@H](Cc1ccc(Cl)cc1)n1cncn1 (racemic) [Paclobutrazol],23.6 mg/L,119 mg/kg-day,> 2790 mg/kg-day,3.3 mg/L,> 1000 mg/kg,1.69 mg/kg,> 2100 mg/kg,2.2 mg/kg-day,10 mg/kg-day,> 2 µg/piece,0.32 mg/L,490 mg/kg,> 1000 g/ha,
"NC(Cc1ncn[nH]1)C(=O)O (stereo not given) [1,2,4-Triazole-3-alanine]",,,,,,,,,100 mg/kg-day,,,,,
"c1nc[nH]n1 [1H-1,2,4-Triazole]",,,,,,,,,,,,,,17 mg/kg-day and 30 mg/kg-day
